SMILES | melting point
S=C1CN=C(c2ccc(Cl)cc2)c2cc(I)ccc2N1 | 260 to 262 °C
CC(C)Nc1nc2cc(Cl)c(Cl)cc2n1[C@H]1C[C@@H](CO)[C@H](O)[C@@H]1O | 137 to 138 °C
Cc1cc(F)cc(C=O)c1O | 49 to 52 °C
O=C(O)CCc1cc(CCNS(=O)(=O)c2ccc(Cl)cc2)cc(Cc2ccc(F)cc2)c1 | 85 to 87 °C
CC(=O)Nc1ccc(C2=NNC(=O)NC2C)cc1Cl (stereo unspecified) | 250 to 252 °C
O=C(NCCO)OCc1ccccc1 | 55 to 57 °C
CC(C)c1cc(C(C)C)c(C(O)C(=O)c2ccc(C(C)C)c(OS(N)(=O)=O)c2C(C)C)c(C(C)C)c1 (stereo unspecified) | 96 to 101 °C
FC(F)(F)c1ccc(-c2cc(C(F)(F)F)cc(Br)n2)cc1 | 35 to 37 °C
COc1ccc(C=O)c(F)c1OC | 52 to 54 °C
CCCCCCCCN(CC(=O)NO)S(=O)(=O)c1ccc(C)cc1 | 89 °C
CN(C)NC(=O)N1CCC(Br)C1=O (stereo unspecified) | 78 to 79 °C
O=C(NCc1ccc(Cl)cc1)c1cn(CCN2CCCC2)c2ccc(C#CCO)cc2c1=O | 189 to 192 °C
CCCC(=O)NCCC1=CCc2cc(F)c(OC)cc21 | 90 to 92 °C
COP(=O)(OC)[C@H](C)NC(=O)[C@H](C)N | 103 to 106 °C
Cc1ccc(C2(C(=O)O)CC2C(=O)O)cc1 (single isomer, unassigned; (-)) | 145 to 148 °C
c1ccc2c(c1)c1ccccc1n2-c1ccc2c(c1)Oc1ccc(-n3c4ccccc4c4ccccc43)cc1O2 | 348 °C
CCc1nccc(NC(=O)Cc2ccc(O)cc2)c1Cl | 158 to 161 °C
N#CC(C#N)(OC(=O)c1ccc(Cl)c(Cl)c1)c1ccc(Cl)c(Cl)c1 | 110 °C
CCn1c(C(F)(F)F)nn(-c2cc(N)c(C(N)=S)cc2F)c1=O | 161 °C
CCc1ccc(Nc2c(C(=O)NOCCO)ccc(F)c2F)c(F)c1 | 112 °C
CCOC(=O)COCCCC(=CC(N)C(=O)O)CP(=O)(O)O (stereo unspecified) | 215 to 218 °C
COc1cc2c(cc1O)CCC1C2CCC2(C)C(=O)CCC12 (stereo unspecified) | 167 to 170 °C
O=C(CF)c1ccc(F)cc1F | 57 to 58 °C
Cc1csc(Cc2ccc(NC(=O)/C=C/c3cnn(C)c3-c3ccc(F)cc3)cc2)n1 | 217 to 218 °C
CN1c2ccc(C=C(c3ccccc3)c3ccccc3)cc2S(=O)(=O)c2cc(C=C(c3ccccc3)c3ccccc3)ccc21 | 246 to 252 °C

Next, values leading:

melting point | SMILES
130 to 133 °C | Fc1ccc2onc(CCCN3CCN(c4cc5ccccc5cn4)CC3)c2c1
260 to 262 °C | O=C1NC(c2ccccc2)c2cc(Cl)ccc2-n2nc(CO)cc21 (stereo unspecified)
104 to 105 °C | O=c1c2ccccc2cnn1Cc1ccccc1
293 to 296 °C | CC(C)(CO)c1ccc(C(=O)Nc2cn3cc(-c4cn[nH]c4)ccc3n2)cc1
204 to 206 °C | O=c1c2cc(F)c(F)cc2n(-c2ccccc2F)c(=O)n1OCc1ccccc1
160 °C | Cc1cccnc1COc1nn2c(-c3ccccc3)nnc2cc1N1CCCCC1
91 to 93 °C | CCOC(=O)C(C)c1ccc2c(c1)C(=O)c1ccccc1CS2 (stereo unspecified)
51 to 52 °C | COc1ccc(-c2c3cccc(C(F)(F)F)c3nn2C2CCC2)c(OC)c1
275 to 276 °C | Cc1ccc(-c2[nH]c(C)nc2C(=O)Nc2nccs2)cc1
102 to 104 °C | O=[N+]([O-])c1ccc2c(ccn2Cc2ccccc2)c1
158 °C | CCc1nc2c(C)nc(C)cc2n1-c1ccc(CCOC(=O)NS(=O)(=O)c2ccc(C)cc2)cc1
133 °C | COc1ccc(S(=O)(=O)C2(C(=O)O)CCCN(Cc3ccccc3)C2)cc1 (stereo unspecified)
86.5 to 88 °C | CCOC(=O)C=Cc1cnc2ccccc2c1
137 to 138 °C | Cc1cccc(N2CCNC2=O)c1
166 to 168 °C | O=C(N[C@@H](Cn1cccn1)C(=O)O)OCc1ccccc1
99 to 100 °C | O=C1c2ccc(-c3ccccc3)cc2CC1Br (stereo unspecified)

From a melting point compilation (Tetko et al.; mined from patent text by program, amines drawn as free bases though some values may be those of a salt)
